Data taken from patent EP4772497A1, “POLYMORPHS OF NITROGEN-CONTAINING HETEROCYCLIC COMPOUNDS, AND USES THEREOF” (BNH Research Co., Ltd., priority 2023, dated 2025).
≈ marks a conversion by molar mass, not a printed value.

Key:
[1] = Solubility assay of crystalline form A in 17 solvents; assay type: physicochemical; settings: thermodynamic from solid
Description: For solubility assay, about 5 mg or about 10 mg of crystalline form A was weighed into a 2 mL glass vial. A 20 µL aliquot of each of the 17 solvents listed in Table 8 was added to the vial to dissolve the drug substance. For about 5 mg of crystalline form A, the drug substance was dissolved at 25°C; and for about 10 mg of crystalline form A, the drug substance was dissolved at 50°C. To aid dissolution, vortexing and sonication were applied to facilitate dissolution, and the maximum volume of each solvent added was 1 mL.

[2] = Parallel artificial membrane permeability assay (PAMPA) for BBB permeability; assay type: in vitro ADME; settings: PAMPA, pH 7.2, BBB lipid membrane, PBS (pH 7.2); read-out: PAMPA Pe
Description: • PAMPA: PMBBB-096 Kit • Assay format: 96-well plate • Reference substance: Imipramine (H) (10 µM) • Test substance concentration: 10 µM • Number of replicates: 3 • Reaction time: 6 hours at 25°C on a shaker (75 - 80 rpm) • Analytical method: LC-MS/MS • Data processing: Pe (cm/s)
The test compounds (crystalline forms A and C) were dissolved in DMSO at a concentration of 10 mM […] to prepare standard solutions. Next, dried brain lipids were resuspended in 600 µL dodecane to prepare a BBB lipid solution in dodecane. Pipetting up and down was repeated (~100 times) until all dried brain lipids were dissolved (vortexing or sonication may be helpful). A 10 µM reaction solution in PBS containing 5% DMSO was prepared.
The experiments were conducted in a 96-well plate using the prepared reaction solution of each test compound and the BBB lipid solution according to the following assay procedure. • 1. 500 µL of a 500 µM test compound solution (prepared by mixing 25 µL of a 10 mM test compound + 475 µL of PBS (pH 7.2) in DMSO) was prepared in a separate centrifuge tube. When a permeability control was used, it was diluted to 500 µM using PBS (prepared by mixing 25 µL of permeability control + 475 µL of PBS (pH 7.2)). • 2. For each test compound and control, a 200 µM equilibrium standard was prepared in a separate tube (by mixing 80 µL of 500 µM test compound or control with 120 µL of PBS (pH 7.2)). […] The absorbance spectrum from 200 nm to 500 nm was measured at 10 nm intervals to determine the peak absorbance of the test compounds. […] The peak absorbances of the high-permeability and low-permeability controls are 250 nm and 270 nm, respectively.
For the compounds and permeability controls, the permeability rate (Pe) was determined using the following equation: Pe = C × −ln(1−(ODA)/(ODE))cm/s [formula]
Here, ODA is the absorbance of the acceptor solution minus the blank, and ODE is the absorbance of the equilibrium standard minus the blank. For each absorbance value, the peak absorbance determined for each test was used. […]

solubility ([1]; organic solvent or mixture, 1,4-Dioxane, 25°C): > 250 mg/mL
solubility ([1]; organic solvent or mixture, 1,4-Dioxane, 50°C): > 500 mg/mL
solubility ([1]; organic solvent or mixture, 2-MeTHF, 25°C): > 250 mg/mL
solubility ([1]; organic solvent or mixture, 2-MeTHF, 50°C): > 500 mg/mL
solubility ([1]; organic solvent or mixture, Acetone, 25°C): 125 to 250 mg/mL (≈ 398 to 797 mM)
solubility ([1]; organic solvent or mixture, Acetone, 50°C): > 500 mg/mL
solubility ([1]; organic solvent or mixture, Acetonitrile, 25°C): 41 to 50 mg/mL (≈ 131 to 159 mM)
solubility ([1]; organic solvent or mixture, Acetonitrile, 50°C): > 500 mg/mL
solubility ([1]; organic solvent or mixture, DMF, 25°C): > 250 mg/mL
solubility ([1]; organic solvent or mixture, DMF, 50°C): > 500 mg/mL
solubility ([1]; organic solvent or mixture, DMSO, 25°C): > 250 mg/mL
solubility ([1]; organic solvent or mixture, DMSO, 50°C): > 500 mg/mL
solubility ([1]; organic solvent or mixture, Dichloromethane, 25°C): > 250 mg/mL
solubility ([1]; organic solvent or mixture, Dichloromethane, 50°C): > 500 mg/mL
solubility ([1]; organic solvent or mixture, Ethanol, 25°C): 125 to 250 mg/mL (≈ 398 to 797 mM)
solubility ([1]; organic solvent or mixture, Ethanol, 50°C): > 500 mg/mL
solubility ([1]; organic solvent or mixture, Ethyl acetate, 25°C): 41 to 50 mg/mL (≈ 131 to 159 mM)
solubility ([1]; organic solvent or mixture, Ethyl acetate, 50°C): 250 to 500 mg/mL (≈ 797 to 1590 mM)
solubility ([1]; organic solvent or mixture, Heptane, 25°C): < 5 mg/mL
solubility ([1]; organic solvent or mixture, Heptane, 50°C): < 10 mg/mL
solubility ([1]; organic solvent or mixture, Isopropyl acetate, 25°C): 63 to 83 mg/mL (≈ 201 to 265 mM)
solubility ([1]; organic solvent or mixture, Isopropyl acetate, 50°C): 125 to 167 mg/mL (≈ 398 to 532 mM)
solubility ([1]; organic solvent or mixture, MTBE, 25°C): 16 to 20 mg/mL (≈ 51 to 63.7 mM)
solubility ([1]; organic solvent or mixture, MTBE, 50°C): 33 to 50 mg/mL (≈ 105 to 159 mM)
solubility ([1]; organic solvent or mixture, Methanol, 25°C): > 250 mg/mL
solubility ([1]; organic solvent or mixture, Methanol, 50°C): > 500 mg/mL
solubility ([1]; organic solvent or mixture, Methyl ethyl ketone, 25°C): 83 to 125 mg/mL (≈ 265 to 398 mM)
solubility ([1]; organic solvent or mixture, Methyl ethyl ketone, 50°C): 250 to 500 mg/mL (≈ 797 to 1590 mM)
solubility ([1]; organic solvent or mixture, Tetrahydrofuran, 25°C): > 250 mg/mL
solubility ([1]; organic solvent or mixture, Tetrahydrofuran, 50°C): > 500 mg/mL
solubility ([1]; organic solvent or mixture, Toluene, 25°C): 17 to 25 mg/mL (≈ 54.2 to 79.7 mM)
solubility ([1]; organic solvent or mixture, Toluene, 50°C): 50 to 100 mg/mL (≈ 159 to 319 mM)
solubility ([1]; Water, 25°C): < 5 mg/mL
solubility ([1]; Water, 50°C): < 10 mg/mL
Papp at 6 h, 10 µM [2]: 0.00925 ×10⁻⁶ cm/s
Compound: C[C@@H]1CC[C@H](C(=O)O)CN1C(=O)Cc1ccc(F)cc1Cl [Crystalline form A, (3S,6R)-1-(2-(2-chloro-4-fluorophenyl)acetyl)-6-methylpiperidine-3-carboxylic acid]
